Assay results reported in US20120302573A1, “METHODS OF INHIBITING PRO MATRIX METALLOPROTEINASE ACTIVATION” (priority 2011, published 2012).
Where “and” joins values, the source holds several entries; their conditions need not be identical. Equal values may be shown once.

Experiments:
[1] = molecular target: T1, MMP9 mediated gelatinase activity (Rattus norvegicus, UniProt P50282); assay: In situ zymography of gelatinase activity in livers of SCW-induced rats dosed with compound; assay type: in vivo; details: for Liver gelatinase Intensity, Mean / Liver gelatinase Intensity, individual rats: Day 25-28
T1 construct: from tissue; host or cells: liver cryosections of female Lewis rats
Excerpt: In situ zymography provides an alternative approach to assess active MMP9 in tissues (J Histochem Cytochem; 2004; 52:711-722). Tissue sections are overlain with fluorescein-conjugated gelatin wherein the conjugation is sufficiently dense to cause the fluorescein to be dye-quenched (DQ). Proteolytic degradation of the DQ-gelatin releases the fluorescein from the quenching effect giving rise to bright green fluorescence at the site of degradation. Because in situ zymography requires the use of frozen sections, calcified tissues are problematic. However, an additional feature of the SCW arthritis model is the development of hepatic granulomatous disease (J Immunol; 1986; 137:2199-2209), and MMP9 reportedly plays a role in macrophage recruitment in the granulomas response to mycobacteria (Infect Immun; 2006; 74:6135-6144). Consequently, granulomatous livers from SCW-treated rats were assessed for active MMP9 by in situ zymography.
As described above, Female Lewis (LEW/N) rats, 5-6 weeks of age (80-100 g) were injected (i.p.) with saline or SCW PG-PS. On day 28, when the granulomatous response was well established, animals were sacrificed and livers were frozen in OCT cryo-sectioning medium and 10 μm sections were cut on a Cryome HM 500 M cryotome and mounted on glass microscope slides. Sections were air dried briefly. MMP9 was confirmed as the source of the gelatinase activity in the liver by treating liver sections with monoclonal antibodies directed against the active site of the two major gelatinases MMP9 and MMP2. Liver sections overlain with 50 μL of 100 μg/mL neutralizing mouse monoclonal antibodies directed against MMP9 (Calbiochem, clone 6-6B), or MMP2 (Millipore, clone CA-4001), or with PBS for 1 hr at room temperature. Tissues were rinsed once with PBS, blotted, and briefly air dried and then overlain with DQ-gelatin (Invitrogen) dissolved to 1 mg/mL in deionized water and then diluted 1:10 in 1% wt/vol low gelling point agarose type VII (Sigma) in PBS. The sections were covered with coverslips, incubated in the dark at room temperature for 20 min, and imaged on an Olympus IX80 inverted microscope fitted with fluorescence optics, using SlideBook™ imaging software (Intelligent Imaging Innovations, Inc., Philadelphia, Pa.; version 5.0). Fluorescence intensity was determined (Table 9). When compared to a saline-treated rat, gelatinase activity was abundantly expressed in granulomatous liver sections obtained from a rat with SCW arthritis.
Next, liver in situ zymography was used to assess the relative presence of active MMP9 in rats dosed with vehicle vs. Compound α. Female Lewis (LEW/N) rats, 5-6 weeks of age (80-100 g) were injected (i.p.) with saline or SCW PG-PS. Commencing on day 25, randomized groups of rats (n=3 rats/group) received vehicle or 20 or 50 mg/kg Compound α BID by oral gavage. Vehicle consisted of an aqueous mixture containing 2% (v:v) N-methylpyrrolidone, 5% (v:v) glycerine, and 20% (w:v) captisol. Treatment continued daily through the morning of day 28.
Four hrs after the AM dose on day 28, rats were sacrificed and livers assessed for active MMP9 by in situ zymography (Table 10). Gelatinase activity was increased markedly in SCW-induced rats, but activity was reduced by approximately 80% in animals treated with 50 mg/kg Compound α.

[2] = molecular target: T2, MMP9 (Rattus norvegicus, UniProt P50282); assay: Western blot of MMP9 forms in ankles of rats with SCW-induced arthritis; assay type: in vivo; details: day 26, mAb-L51/82
T2 construct: Pro and active MMP9 were abundantly present in ankles of SCW-induced vehicle-treated rats; from tissue; host or cells: tibia-tarsus joints (ankles) of female Lewis rats
Procedure: Hind-limbs were skinned, severed just above the tibia-tarsus joint and below the metatarsals, and the tibia-tarsus joints (ankles) were weighed, snap frozen and pulverized on dry ice using a hammer and anvil. The pulverized tissue was suspended in 3 volumes (w:v) of ice-cold homogenization buffer containing 50 mM Tris pH 7.5, 150 mM NaCl, 5 mM EDTA, 1% Triton×100, 0.05% Brij 30, 10% dimethylsulfoxide and Complete EDTA-free Protease Inhibitor Cocktail (Roche Diagnostics). The suspended tissue was homogenized sequentially with a Kinematica AG Polytron and a Dounce homogenizer. Homogenates were centrifuged at 16,000×g for 10 min at 4° C. and the soluble fractions were saved. Dimethylsulfoxide was removed from a portion of each soluble fraction using PD MiniTrap™ G-25 desalting columns (GE Healthcare). Homogenates (0.25 mL), free of DMSO, were diluted with an equal volume of binding buffer (i.e., homogenization buffer without dimethylsufoxide) and adjusted to contain 50 μL of a 50% slurry of gelatin-conjugated sepharose. Following 2 hours of rotation at 4° C. the beads were washed twice in binding buffer and eluted in 100 μL 2×-reducing Laemmli buffer with heating to 95° C. for 5 minutes. […]

T1 sequence (P50282 108-708): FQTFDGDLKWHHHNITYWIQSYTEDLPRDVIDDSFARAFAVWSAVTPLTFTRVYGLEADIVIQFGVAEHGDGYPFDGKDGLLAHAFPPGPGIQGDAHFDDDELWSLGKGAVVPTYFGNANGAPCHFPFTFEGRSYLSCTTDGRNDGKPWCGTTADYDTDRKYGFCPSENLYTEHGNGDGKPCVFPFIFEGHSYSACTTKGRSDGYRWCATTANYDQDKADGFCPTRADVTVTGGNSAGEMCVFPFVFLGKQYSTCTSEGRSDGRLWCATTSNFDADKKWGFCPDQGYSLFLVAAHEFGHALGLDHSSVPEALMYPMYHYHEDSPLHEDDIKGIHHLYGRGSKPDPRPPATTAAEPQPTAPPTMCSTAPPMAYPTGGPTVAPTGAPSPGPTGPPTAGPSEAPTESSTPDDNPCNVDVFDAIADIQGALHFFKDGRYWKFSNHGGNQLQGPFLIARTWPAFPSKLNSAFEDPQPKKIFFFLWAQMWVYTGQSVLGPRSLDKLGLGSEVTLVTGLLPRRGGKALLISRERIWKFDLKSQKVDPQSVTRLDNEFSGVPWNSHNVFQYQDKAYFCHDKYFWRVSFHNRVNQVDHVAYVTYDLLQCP
T2 sequence (P50282 108-708): as above

Liver gelatinase Intensity, Mean ([1]; 20 mg/kg BID oral): 55.2 RLU × 10^6
Liver gelatinase Intensity, Mean ([1]; 50 mg/kg BID oral): 11.1 RLU × 10^6
reduction of liver gelatinase activity ([1]; 50 mg/kg BID oral, day 28): approximately 80%
abundance of proMMP9 in ankles [2]: did not reduce
SMILES: Cc1nc(C)c(-c2csc(Nc3cc(S(N)(=O)=O)ccc3OC(C)C)n2)s1 [Compound α, 3-(2′,4′-Dimethyl-[4,5′]bithiazolyl-2-ylamino)-4-isopropoxy-benzenesulfonamide.HBr]
Liver gelatinase Intensity, individual rats ([1]; 20 mg/kg BID oral): 43.0 RLU × 10^6 and 69.0 RLU × 10^6 and 53.7 RLU × 10^6
Liver gelatinase Intensity, individual rats ([1]; 50 mg/kg BID oral): 3.2 RLU × 10^6 and 25.6 RLU × 10^6 and 4.5 RLU × 10^6
